Experimental data from EP2181998B1, “New benzothiazinone derivative and its use as antibacterial agent” (priority 2006, dated 2007).
Values after ≈ are worked out from the molar mass of the structure shown.

Key:
[1] = system: M. vaccae IMET 10 10670; format: cell-based
[2] = Toxicity after per os administration; settings: mice
[3] = system: Mycobacterium tuberculosis H37Rv and clinical isolates 6341 and 6374; assay: MIC and MBC, classical method, over several strains; format: cell-based; settings: for MBC: read-out: MBC (µg/mL) mean; for MIC: read-out: MIC (µg/mL) mean
[4] = system: Mycobacterium smegmatis SG 987; format: cell-based; settings: Mycolicibacterium smegmatis, SG987; read-out: MIC M. smegmatis
[5] = in vivo; settings: mouse
[6] = system: Mycobacterium tuberculosis H37Rv; assay: Murine TB model (experimental hematogenously disseminated tuberculosis); format: in vivo, BALB/c line mice; settings: for Injury index: daily 6 times per week, four-score scale, liver, spleen and lungs; for Efficacy index (%): 100% - injury index of group / injury index of control x 100; for right lung Culture, without dilution CFU / spleen Culture, without dilution CFU: 42 days after inoculation of the culture medium
[7] = system: Mycobacterium tuberculosis clinical isolate 6374; format: cell-based
[8] = system: Mycobacterium tuberculosis clinical isolate 6341; format: cell-based
[9] = system: M. fortuitum B; settings: Mycolicibacterium fortuitum, read-out: MIC M.fortuitum

## CC1COC2(CCN(c3nc(=O)c4cc(C(F)(F)F)cc([N+](=O)[O-])c4s3)CC2)O1 (centres unmarked) [Compound 2, 2-(2-methyl-1,4-dioxa-8-azaspiro[4.5]dec-8-yl)-8-nitro-6-(trifluoromethyl)-1,3-benzothiazin-4-one]
[1]
  MIC M.vaccae: 0,76pg/ml
[2]; doses ranging up to 2000 mg/kg
  toxicity: non toxic
[2]; doses up to 2000 mg/kg, during 7 days of investigations
  animal death: no cases of animal death
[3]
  MBC: 0.45 µg/mL (≈ 1.04 µM)
  MIC: 0.29 µg/mL (≈ 0.672 µM)
[4]
  MIC: 0.00156 µg/mL (≈ 0.00362 µM)
[5]
  LD50: > 2000 mg/kg
[6]; 12 mg/kg orally
  Injury index: 2,1
  Efficacy index (%): 44,7%
  right lung Culture, without dilution CFU: ∼ 60 CFU
  spleen Culture, without dilution CFU: ∼ 60 CFU
[6]; 25 mg/kg orally
  Injury index: 1,0
  Efficacy index (%): 78%
  right lung Culture, without dilution CFU: ∼ 35 CFU
  spleen Culture, without dilution CFU: ∼ 35 CFU
[6]; Group 3, 12 mg/kg oral, day of treatment 1, of 10 animals
  Survival of animals: 10
[6]; Group 3, 12 mg/kg oral, day of treatment 2, of 10 animals
  Survival of animals: 10
[6]; Group 3, 12 mg/kg oral, day of treatment 3, of 10 animals
  Survival of animals: 10
[6]; Group 3, 12 mg/kg oral, day of treatment 4, of 10 animals
  Survival of animals: 10
[6]; Group 3, 12 mg/kg oral, day of treatment 5, of 10 animals
  Survival of animals: 10
[6]; Group 3, 12 mg/kg oral, day of treatment 6, of 10 animals
  Survival of animals: 10
[6]; Group 3, 12 mg/kg oral, day of treatment 7, of 10 animals
  Survival of animals: 10
[6]; Group 3, 12 mg/kg oral, day of treatment 8, of 10 animals
  Survival of animals: 10
[6]; Group 3, 12 mg/kg oral, day of treatment 9, of 10 animals
  Survival of animals: 10
[6]; Group 3, 12 mg/kg oral, day of treatment 10, of 10 animals
  Survival of animals: 10
[6]; Group 3, 12 mg/kg oral, day of treatment 11, of 10 animals
  Survival of animals: 10
[6]; Group 3, 12 mg/kg oral, day of treatment 12, of 10 animals
  Survival of animals: 10
[6]; Group 3, 12 mg/kg oral, day of treatment 13, of 10 animals
  Survival of animals: 10
[6]; Group 3, 12 mg/kg oral, day of treatment 14, of 10 animals
  Survival of animals: 10
[6]; Group 3, 12 mg/kg oral, day of treatment 15, of 10 animals
  Survival of animals: 10
[6]; Group 3, 12 mg/kg oral, day of treatment 16, of 10 animals
  Survival of animals: 10
[6]; Group 3, 12 mg/kg oral, day of treatment 17, of 10 animals
  Survival of animals: 10
[6]; Group 3, 12 mg/kg oral, day of treatment 18, of 10 animals
  Survival of animals: 10
[6]; Group 3, 12 mg/kg oral, day of treatment 19, of 10 animals
  Survival of animals: 10
[6]; Group 3, 12 mg/kg oral, day of treatment 20, of 10 animals
  Survival of animals: 10
[6]; Group 3, 12 mg/kg oral, day of treatment 21, of 10 animals
  Survival of animals: 10
[6]; Group 3, 12 mg/kg oral, day of treatment 22, of 10 animals
  Survival of animals: 10
[6]; Group 3, 12 mg/kg oral, day of treatment 23, of 10 animals
  Survival of animals: 10
[6]; Group 3, 12 mg/kg oral, day of treatment 24, of 10 animals
  Survival of animals: 10
[6]; Group 3, 12 mg/kg oral, day of treatment 25, of 10 animals
  Survival of animals: 10
[6]; Group 3, 12 mg/kg oral, day of treatment 26, of 10 animals
  Survival of animals: 10
[6]; Group 3, 12 mg/kg oral, day of treatment 27
  Survival of animals: 100%
[6]; Groups 4/5, 25 mg/kg oral, day of treatment 1, of 10 animals
  Survival of animals: 10
[6]; Groups 4/5, 25 mg/kg oral, day of treatment 2, of 10 animals
  Survival of animals: 10
[6]; Groups 4/5, 25 mg/kg oral, day of treatment 3, of 10 animals
  Survival of animals: 10
[6]; Groups 4/5, 25 mg/kg oral, day of treatment 4, of 10 animals
  Survival of animals: 10
[6]; Groups 4/5, 25 mg/kg oral, day of treatment 5, of 10 animals
  Survival of animals: 10
[6]; Groups 4/5, 25 mg/kg oral, day of treatment 6, of 10 animals
  Survival of animals: 10
[6]; Groups 4/5, 25 mg/kg oral, day of treatment 7, of 10 animals
  Survival of animals: 10
[6]; Groups 4/5, 25 mg/kg oral, day of treatment 8, of 10 animals
  Survival of animals: 10
[6]; Groups 4/5, 25 mg/kg oral, day of treatment 9, of 10 animals
  Survival of animals: 10
[6]; Groups 4/5, 25 mg/kg oral, day of treatment 10, of 10 animals
  Survival of animals: 10
[6]; Groups 4/5, 25 mg/kg oral, day of treatment 11, of 10 animals
  Survival of animals: 10
[6]; Groups 4/5, 25 mg/kg oral, day of treatment 12, of 10 animals
  Survival of animals: 10
[6]; Groups 4/5, 25 mg/kg oral, day of treatment 13, of 10 animals
  Survival of animals: 10
[6]; Groups 4/5, 25 mg/kg oral, day of treatment 14, of 10 animals
  Survival of animals: 10
[6]; Groups 4/5, 25 mg/kg oral, day of treatment 15, of 10 animals
  Survival of animals: 10
[6]; Groups 4/5, 25 mg/kg oral, day of treatment 16, of 10 animals
  Survival of animals: 10
[6]; Groups 4/5, 25 mg/kg oral, day of treatment 17, of 10 animals
  Survival of animals: 10
[6]; Groups 4/5, 25 mg/kg oral, day of treatment 18, of 10 animals
  Survival of animals: 10
[6]; Groups 4/5, 25 mg/kg oral, day of treatment 19, of 10 animals
  Survival of animals: 10
[6]; Groups 4/5, 25 mg/kg oral, day of treatment 20, of 10 animals
  Survival of animals: 10
[6]; Groups 4/5, 25 mg/kg oral, day of treatment 21, of 10 animals
  Survival of animals: 10
[6]; Groups 4/5, 25 mg/kg oral, day of treatment 22, of 10 animals
  Survival of animals: 10
[6]; Groups 4/5, 25 mg/kg oral, day of treatment 23, of 10 animals
  Survival of animals: 10
[6]; Groups 4/5, 25 mg/kg oral, day of treatment 24, of 10 animals
  Survival of animals: 10
[6]; Groups 4/5, 25 mg/kg oral, day of treatment 25, of 10 animals
  Survival of animals: 10
[6]; Groups 4/5, 25 mg/kg oral, day of treatment 26, of 10 animals
  Survival of animals: 10
[6]; Groups 4/5, 25 mg/kg oral, day of treatment 27
  Survival of animals: 100%
[6]; murine model of tuberculosis infection, all control animals died until day 33
  mice survived: 100%
[7]
  MBC: 0.39 µg/mL (≈ 0.904 µM)
  MIC: 0.195 µg/mL (≈ 0.452 µM)
[8]
  MBC: 0.39 µg/mL (≈ 0.904 µM)
  MIC: 0.29 µg/mL (≈ 0.672 µM)

## CC1COC2(CCN(c3nc(=O)c4cc(C#N)cc([N+](=O)[O-])c4s3)CC2)O1 (centres unmarked) [Compound 10, 2-(2-methyl-1,4-dioxa-8-azaspiro[4.5]dec-8-yl)-8-nitro-4-oxo-1,3-benzothiazine-6-carbonitrile]
[1]; Mycolicibacterium vaccae, IMET1010670, read-out: MIC M.vaccae
  MIC: 0.00312 µg/mL (≈ 0.00803 µM)
[3]
  MBC: 0.71 µg/mL (≈ 1.83 µM)
  MIC: 0.45 µg/mL (≈ 1.16 µM)
[4]
  MIC: 0.025 µg/mL (≈ 0.0644 µM)
[9]
  MIC: 0.0125 µg/mL (≈ 0.0322 µM)
[7]
  MBC: 0.78 µg/mL (≈ 2.01 µM)
  MIC: 0.39 µg/mL (≈ 1 µM)
[8]
  MBC: 0.78 µg/mL (≈ 2.01 µM)
  MIC: 0.58 µg/mL (≈ 1.49 µM)
